This is an account of results in US6887904B2, “Substituted arylcycloalkanes, compositions containing them and use thereof” (Aventis Pharma S. A., priority 2001, dated 2005).

The target of one assay is Tubulin (Sus scrofa, UniProt P02550+P02554). Briefly: Inhibition of tubulin polymerization (turbidimetry). It is filed as biochemical, pig. The following applies: tubulin 10 μM, 37° C., turbidity at 350 nm. As for the experimental part:
Tubulin is purified from pig brains according to the published methods (Shelanski et al., 1973, Proc. Natl, Acad. Sci. USA, 70, 765-768. Weingarten et al., 1975, Proc. Natl, Acad. Sci. USA, 72, 1858-1862). Briefly, the brains are ground and centrifuged in an extraction buffer. The tubulin, contained in the extract supernatant, is subjected to two successive cycles of polymerization at 37° C. and depolymerization at 4° C., before being separated from the MAPs (Microtubule Associated Proteins) by chromatography on a phosphocellulose P11 column (Whatman). The tubulin thus isolated is more than 95% pure. It is stored in a buffer known as RB/2 30% glycerol, the composition of which is MES-NaOH [2-(N-morpholino)ethanesulfonic acid] 50 mM, pH 6.8; MgCl2 0.25 mM; EGTA 0.5 mM; 30% glycerol (v/v), GTP (guanosine 5′-triphosphate) 0.2 mM. The polymerization of the tubulin into microtubules is monitored by turbidimetry as follows; the tubulin is adjusted to a concentration of 10 μM (1 mg/ml) in the RB/2 30% glycerol buffer, to which is added 1 mM GTP and 6 mM MgCl2. The polymerization is initiated by increasing the temperature from 6° C. to 37° C. in a cuvette with a 1 cm optical pathlength, placed in a Uvikon 931 spectrophotometer (Kontron) equipped with a thermostatically-regulated cuvette holder. The increase in the turbidity of the solution is monitored at 350 nm. The products are dissolved at 10 mM in DMSO and added at variable concentrations (0.5 to 10 μM) to the tubulin solution before polymerization. The IC50 value is defined as the concentration of product which inhibits 50% of the rate of polymerization. A product whose IC50 value is less than or equal to 3 μM is considered as very active.

The next assay deals with HeLa cells. Description: Inhibition of proliferation of HeLa cells ([14C]-thymidine incorporation). It is filed as cell-based, human. As for the experimental part:
The proliferation of HeLa cells is assessed by measuring the incorporation of [^14C]-thymidine in the following way. The HeLa cells (epithelial tumor cells of human origin) are cultured in a DMEM medium (Gibco) which contains 10% fetal calf serum and antibiotics (1% penicillin, 1% streptomycin). To carry out the proliferation test, the cells are inoculated into 96-well cytostar microplates (Amersham), at a rate of 5 000 cells per well. [^14C]-thymidine (0.1 μCi/well) and the products to be assessed are then added. Variable concentrations of product up to 10 μM are used; the DMSO (solvent used to dissolve the products) should not exceed 0.5% in the medium. After incubation for 48 hours at 37° C., the radioactivity incorporated into the cells is measured by counting the plate in a TRI-LUX counter (Wallac). The IC50 value is defined as the concentration of product which reduces the radioactivity by 50% relative to an untreated control. A product whose IC50 value is less than 1 μM is considered as cytotoxic.

Assay [1] concerns HDMEC cells. Description: Detachment effect on HDMEC endothelial cells. It is filed as cell-based, human. As to conditions: treatment for two hours. The source says: A test to determine the detachment of endothelial cells was established in order to select the products on the basis of their “in vitro” activity. This test for determining the endothelial cell detachment is characterized in that the endothelial cells, inoculated in plates which are coated at the bottom with a binder, e.g., chosen from gelatin, fibronectin or vitronectin, after culturing, are supplemented with a medium containing the test compound, and the cells are then labeled with a fluorescent substance, the cells which become detached are removed by washing and the fluorescence of the remaining cells is counted in a fluorimeter.
This test consists in measuring the detachment of endothelial cells cultured on substrates based on a binder, e.g., chosen from fibronectin, vitronectin and gelatin. […] The fluorescence of the remaining cells is counted in a fluorimeter. […]
The assessment of the detachment of the endothelial cells in vitro is determined in the following way. […] The fluorescence of the cells which remain attached to the substratum of the well is counted using a fluorimeter, Spectrafluor Plus (Tecan, excitation at 485 nm, and emission at 535 nm). The data are the average of six different samples and are expressed as a percentage of the control (untreated cells). […]
The assessment of the detachment of the endothelial cells in vitro is determined in the following way. […]

The subject of assay [2] is HDMEC cells. Briefly: Inhibition of proliferation of HDMEC cells. As to conditions: Homo sapiens. It is filed as cell-based.

Broadly, the IC50 is the concentration that inhibits the measured activity by half. High values mean lower potency, low ones higher potency.

Some results are limits rather than exact numbers.

Tubulin, sequence (P02554 whole entry): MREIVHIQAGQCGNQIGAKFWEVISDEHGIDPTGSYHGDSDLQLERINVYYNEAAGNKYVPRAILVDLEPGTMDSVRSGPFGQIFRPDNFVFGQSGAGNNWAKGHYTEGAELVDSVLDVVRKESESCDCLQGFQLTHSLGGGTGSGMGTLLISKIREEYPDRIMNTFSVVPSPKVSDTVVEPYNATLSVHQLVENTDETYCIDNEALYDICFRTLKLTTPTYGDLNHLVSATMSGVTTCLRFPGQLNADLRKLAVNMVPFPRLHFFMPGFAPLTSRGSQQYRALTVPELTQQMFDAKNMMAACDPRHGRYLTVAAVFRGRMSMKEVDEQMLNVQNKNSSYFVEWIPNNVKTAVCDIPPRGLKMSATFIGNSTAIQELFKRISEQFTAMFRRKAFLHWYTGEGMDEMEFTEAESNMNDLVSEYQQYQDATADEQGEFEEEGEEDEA
Tubulin, sequence (P02550 whole entry): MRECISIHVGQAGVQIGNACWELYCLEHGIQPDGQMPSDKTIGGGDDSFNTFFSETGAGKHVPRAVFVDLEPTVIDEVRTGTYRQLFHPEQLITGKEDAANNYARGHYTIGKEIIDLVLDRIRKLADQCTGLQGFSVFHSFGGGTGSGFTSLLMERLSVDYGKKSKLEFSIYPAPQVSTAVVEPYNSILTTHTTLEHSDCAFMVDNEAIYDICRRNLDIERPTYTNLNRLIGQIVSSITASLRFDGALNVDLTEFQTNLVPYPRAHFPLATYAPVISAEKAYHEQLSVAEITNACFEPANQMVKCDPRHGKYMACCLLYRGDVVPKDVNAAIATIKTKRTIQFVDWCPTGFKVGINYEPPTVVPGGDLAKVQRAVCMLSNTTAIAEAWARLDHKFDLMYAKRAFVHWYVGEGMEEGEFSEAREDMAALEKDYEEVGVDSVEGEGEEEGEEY

On to `COc1ccc(C2C3C=CC(C3)C2C(=O)c2cc(OC)c(OC)c(OC)c2)cc1O` (racemic) [Example 3, [2-(3-Hydroxy-4-methoxyphenyl)bicyclo[2.2.1]hept-4-enyl](3,4,5-trimethoxyphenyl)methanone, trans racemate], for which the IC50 at Tubulin is 4.5 µM; with HeLa cells (Homo sapiens, HeLa, 48 hours), 0.52 to 1.06 µM.

As for `COc1ccc(C2CC2C(=O)c2cc(OC)c(OC)c(OC)c2)cc1O` (racemic) [Example 1, [2-(3-Hydroxy-4-methoxyphenyl)cyclopropyl](3,4,5-trimethoxyphenyl)methanone, trans racemate], the “Percentage of detachment of HDMEC cells induced with the compound cited in the example at a concentration of 1 μM” value with HDMEC cells [1] is listed as 36-37%. In addition, the IC50 was 1 µM against Tubulin; 0.017 to 0.018 µM in the assay on HDMEC cells [2]; < 0.0019 µM with HeLa cells (Homo sapiens, HeLa, 48 h).

As to `COc1cc(C(=O)C2CC2c2ccc(N(C)C)cc2)cc(OC)c1OC` (racemic) [Example 2, [2-(4-Dimethylaminophenyl)cyclopropyl](3,4,5-trimethoxyphenyl)methanone, trans racemate], the IC50 at Tubulin amounted to 2.5 µM; with HDMEC cells [2] it was 4 µM; in the assay with HeLa cells (48 hours), 1.45 µM; in the assay on HeLa cells (Homo sapiens, HeLa, 48 h), 1.35 µM.
